What was measured:
[1] = biological target: T1, FKBP protein (Homo sapiens, UniProt P62942); assay: Formation of nano-assembly matrices of FKBP (wild type)-ferritin by AP1510 in Hela cells; type: cell-based; conditions: 1 μM AP1510
T1 construct: fluorescent protein (mRFP); ferritin (FT); expressed in transfected cells; host or cells: HeLa
Description: In this experiment, a FKBP (wild type) protein was used as a material for inducing the formation of nano-assembly matrices, while an AP1510 compound was used as a material for mediating the binding between FKBP proteins. The AP1510 compound is a FK506-like compound and is a mediator (regulator) material, which has two moieties capable of binding to the FKBP protein, linked with each other by a linker, such that it can interact simultaneously with two molecules of the FKBP protein.
Two FKBP (wild type) proteins were continuously fused to ferritin and expressed in Hela cells. The cells were treated with 1 μM of the AP1510 compound, which is an FKBP interaction mediator (regulator) material, and the formation of nano-assembly matrices within 1 hour was observed through In-Cell Analyzer 1000 (GE) (FIG. 35). After the formation of the nano-assembly matrices was induced for 3 hours, the cells were treated with 250 nM of Rapamycin for 1 hour.
For the case where mRFP was attached to the FKBP protein in Example 7, various fluorescent proteins, such as ECFP, TagCFP and mTFP1, were attached to the FKBP protein to examine the effect of the AP1510 compound on the induction of formation of nano-assembly matrices.
FKBP was fused to the ferritin protein, and the three different fluorescent proteins were attached between FKBP and ferritin, and then expressed in Hela cells. […]

[2] = system: IkBα and IKKb; assay: Formation of nano-assembly matrix by IKKb-IkBα interaction on physiological signal in Hela cells; type: cell-based; conditions: TNFa treatment; FRB-ECFP-FT, IKKb-mRFP-FKBP and IkBα-YFP-FKBP
Description: In another example, IKKb-IkBα proteins were used as prey-bait, and TNFa was used as a material for mediating (regulating) the interaction between them. The IkBα and IKKb proteins interact with each other, only when a physiological external signal of TNFa is transferred to cells. The interaction between phosphorylase (such as IKKb) and IkBα that is the substrate thereof is known as one of the weakest interactions in cells. The recombinant genes FRB-ECFP-FT, IKKb-mRFP-FKBP and IkBα-YFP-FKBP were introduced together into Hela cells, and each of the fusion proteins was expressed in the cells.

T1 sequence (P62942 whole entry): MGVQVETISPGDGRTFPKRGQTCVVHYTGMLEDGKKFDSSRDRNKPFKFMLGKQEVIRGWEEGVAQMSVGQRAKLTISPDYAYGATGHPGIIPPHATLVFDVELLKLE

Molecule | induction of formation of nano-assembly matrices depending on fluorescent protein ([1]; ECFP, TagCFP or mTFP1 between FKBP and ferritin) | time to formation of nano-assembly matrices ([1]; two FKBP (wild type) fused to ferritin) [h] | formation of nano-assembly matrix [2]
CCC(C)(C)C(=O)C(=O)N1CCCC[C@H]1C(=O)O[C@H](CCc1ccc(OC)c(OC)c1)c1cccc(OCC(=O)NCCNC(=O)COc2cccc([C@@H](CCc3ccc(OC)c(OC)c3)OC(=O)[C@@H]3CCCCN3C(=O)C(=O)C(C)(C)CC)c2)c1 [AP1510] | induced more effectively in the case of TagCFP-mTFP1 and mTFP1 than the case of ECFP | ≤ 1 | –
TNFa | – | – | a large nano-assembly matrix was formed in cells
